Laboratory results from PubChem BioAssay AID1902 (Broad Institute, 2009).
Calls of active or inactive are those of the source.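 The calls were made as follows: active = EC50 no more than a set limit of log units above the highest dose; inactive = the rest.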

Molecular target: S. pyogenes SKKanGAS, kanamycin survival, BacTiterGlo, 6 h
Test: SKKanGAS survival reduction under kanamycin, dose response, streptokinase promoter inhibitor project, SKKanGAS strain, luminescence, dose confirmation (AID 1902);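 also: lower survival reflects blocked streptokinase promoter driving kanamycin resistance gene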

Compound	EC50
CCCCNc1c(-c2ccc(OC)c(SC3CCCCC3)c2)nc2cnccn12	3.62 µM
O=C(c1cccs1)N1N=C(c2ccccc2)CC1c1ccccc1 (configuration not stated)	6.41 µM
Cc1cc(C)nc(NC(N)=NCCc2c[nH]c3ccccc23)n1	11.6 µM
COc1cnc(-c2ccccn2)nc1N(C)c1ccccc1	6.8 µM
COc1ccc(-c2nc(-c3ccc4c(c3)OCO4)[nH]c2-c2ccc(OC)cc2)cc1	4.71 µM
Cc1nc(N/N=C\c2ccc3c(c2)OCO3)sc1C	4.63 µM
C=CCSc1nc2ccccc2c(=O)n1Cc1ccccc1	15.3 µM
CCCCCCn1c(=O)c(C(=O)Nc2c(C)n(C)n(-c3ccccc3)c2=O)c(O)c2ccccc21	2.59 µM
N/C(=N\NC(=O)c1sccc1OCc1ccc(Cl)cc1Cl)c1ccccn1	3.32 µM
Fc1ccc2nc(Nc3nc4cc5c(cc4s3)OCO5)sc2c1	2.63 µM
CCS(=O)(=O)c1nc(S(=O)(=O)c2ccc(C)cc2)c(NCCN2CCOCC2)s1	> 15 µM (inactive)
Cc1ccc(NC(=S)N=Nc2c(O)[nH]c3ccccc23)cc1	0.631 µM
O=C(O)c1ccc(N/N=C/c2ccc(-c3cccc(Cl)c3)o2)cc1	6.17 µM
Cc1cccc(CSc2ncnc3c2cnn3Cc2ccccc2)c1	4.58 µM
O=[N+]([O-])c1ccc(Cl)cc1Sc1nc2ccccc2o1	1.67 µM
O=C(NCc1ccc2c(c1)OCO2)C(=O)NCC1OCCN1S(=O)(=O)c1ccc(Br)cc1 (configuration not stated)	> 15 µM (inactive)
CC(C)(C)NC(=O)C1CC2CCCCC2CN1 (configuration not stated)	> 15 µM (inactive)
CCCCn1c(SCC(=O)c2ccccc2)nc2c1c(=O)[nH]c(=O)n2C	3.43 µM
COc1ccc(/C=C2\Sc3ccc(C(=O)N4CCCC4)cc3N(C)C2=O)cc1OC	0.515 µM
Cc1cc(N2CCC(C)CC2)nc(-n2nc(C)cc2C)n1	7.73 µM
FC(F)(F)c1ccccc1/C=N/n1c(C2CCCCC2)n[nH]c1=S	4.76 µM
CC(=O)c1ccc(NC(=S)Nc2ccc(Br)c(Cl)c2)cc1	6.2 µM
C[C@@H](O)[C@H]1C(=O)N2C(C(=O)O)=C(S[C@@H]3CN[C@H](C(=O)N(C)C)C3)[C@H](C)[C@H]12	0.127 µM
O=C(Nc1cc(Cl)cc(Cl)c1)Nc1cnccn1	4.85 µM
CCCCCC/C(=N/O)c1ccccn1	15.4 µM
CCc1ccc(-c2cc(C(=O)N/N=C/c3c[nH]c4ccccc34)[nH]n2)cc1	5.96 µM

Compound	EC50
CC1=NN(c2ccc([N+](=O)[O-])cc2)C(=O)/C1=C\N(C)C	7.94 µM
COc1c(CC=C(C)C)cc(C2CC(=O)c3c(O)cc(O)cc3O2)c(CC=C(C)C)c1O (configuration not stated)	1.87 µM
O=[N+]([O-])c1c(NCCO)cc(Sc2nc3ccccc3s2)c2nonc12	2.95 µM
Cc1cc(/C=N/n2cnnc2)c(C)n1-c1ccc(OCc2ccc(Cl)cc2)cc1	6.19 µM
O=C(Nc1ccc(-c2csc(Nc3ccccc3)n2)cc1)c1cccc(C(F)(F)F)c1	> 15 µM (inactive)
COC(=O)c1ccc(N2CCC(c3cc(-c4ccc(OC)cc4)n[nH]3)CC2)c([N+](=O)[O-])c1	2.15 µM
CCS(=O)(=O)Nc1ccc(-c2cc(-c3ccccc3)c3cc(C)ccc3n2)cc1	4.03 µM
O=C(Nc1nnc(C2=COCCO2)o1)c1cccc(C(F)(F)F)c1	1.73 µM
Cc1ccc(CN2CN(S(=O)(=O)c3cccs3)c3nc4ccccc4nc32)cc1	7.74 µM
COc1ccc(OC)c(/C=C/c2ccc3cccc(O)c3n2)c1	0.197 µM
Cc1onc(-c2ccccc2)c1C(=O)NC(=S)NNC(=O)c1ccc(O)cc1	0.568 µM
Cc1oc(-c2ccc(F)cc2)nc1CN(Cc1ccccn1)CC1CCCO1 (configuration not stated)	2 µM
O=C(O)C(c1ccccc1)N1C(=O)/C(=C\c2ccc(-c3ccc(Br)cc3)o2)SC1=S (configuration not stated)	1.27 µM
Cc1ccc(C(=O)NNC2=Nc3cccc4cccc2c34)cc1	3.14 µM
O=C1CC(N(CCc2ccccc2)C(=S)Nc2ccccc2)C(=O)N1c1ccc(Br)cc1 (configuration not stated)	3.07 µM
CC1=C(C(=O)Nc2ccc([N+](=O)[O-])cc2)C(c2cccc(C(F)(F)F)c2)NC(=S)N1c1ccccc1 (configuration not stated)	4.02 µM
CN(C)c1nc(N/N=C/c2ccccc2O)nc(Nc2ccc(F)cc2)n1	3.79 µM
COc1cc(OC)cc(C(=O)NC(=S)NNC(=O)Cc2cccs2)c1	0.716 µM
Cc1nc(N2CCC(C)CC2)c2c(C)c(C(=O)Nc3ccccc3C(F)(F)F)sc2n1	6.04 µM
CC(C)(C)c1ccc(O)c(N=Cc2c(O)ccc3ccccc23)c1	5.12 µM
Cc1cccc(/C=N/NC(=O)Cc2ccc(Cl)cc2)c1O	3.53 µM
CCc1ccc(CNc2ccc3c(c2)ncn3C(C)(C)C)cc1	3.3 µM
CC(C)=CCc1c2c(c(O)c3c(=O)c4c(oc13)-c1cc(O)c(O)cc1OC4C=C(C)C)C=CC(C)(C)O2 (configuration not stated)	1.88 µM
CCN1CCN(c2cc3c(cc2F)c(=O)c(C(=O)O)cn3C2CC2)CC1	1.29 µM
CC(C)c1ccc2c(c1)C1(NN=C(c3ccccc3)S1)C(=O)N2 (configuration not stated)	< 0.06 µM
Cc1cccc(CSc2nc(N)c(C#N)c(-c3cccs3)c2C#N)c1	4.77 µM
